Read-outs that look alike come from different tables or passages of the source.
Assays:
[1] = system: G-protein heterotrimer (Gα2-CFP:Gβ-YFP) linked to cAMP chemoattractant receptors; assay: FRET loss in living α2-CFP:β-YFP cells (fluorimeter); type: cell-based, D. discoideum; settings: for EC50: read-out: EC50 for decrease of the FRET signal
Experimental: (§1) FIGS. 2A to 2E. Fluorescence spectra of cell lines. (FIG. 2A) Developed cells were excited in a Spex Fluoromax-2 fluorimeter at 440 nm and emission was collected between 460 nm and 600 nm and processed as described (14). Gα2-CFP/g α2^− cells (“α2-CFP”), α2-CFP: β-YFP cells (“α2-CFP: -YFP”), and mixture of equal number of Ga-2-CFP/gα2^− and G β-YFP/g βcells (“mixed cells”). […] Cells were scanned at selected time points following addition of the stimulus. […] Mean intensities were calculated in IPLab Spectrum by manually circumscribing the membrane of multiple cells. […] Arrows indicate the frame at which the stimulus was added. (FIG. 2E) Difference images of consecutive frames of one captured at 3 second intervals were calculated in IPLab Spectrum. […] Calibration bar is 10 μm.
FIGS. 3A to 3B. […] Data was processed as described (34). […] Data from two independent experiments were averaged for each curve.
We excited living, differentiated cells at 440 nm and recorded the emission spectrum between 460 and 600 nm.
• 1. A. G. Gilman, Annu Rev Biochem 56, 615-49 (1987). • 2. H. E. Hamm, J Biol Chem 273, 669-72 (1998). • 3. C. A. Parent, B. J. Blacklock, W. M. Froehlich, D. B. Murphy, P. N. Devreotes, Cell 95, 81-91 (1998). • 4. Z. Xiao, N. Zhang, D. B. Murphy, P. N. Devreotes, J Cell Biol 139, 365-74 (1997). • 5. G. Servant et al., Science 287, 1037-40 (2000). • 6. T. Jin, N. Zhang, Y. Long, C. A. Parent, P. N. Devreotes, Science 287, 1034-6 (2000). • 7. R. Heim, R. Y. Tsien, Curr Biol 6, 178-82 (1996). • 8. The coding region of the β-YFP fusion protein was cloned into the CV5 vector. CV5 was derived from p88 by addition of an actin 15/expression cassette from pMC34 (3). • 9. D. G. Lambright et al., Nature 379, 311-9 (1996). • 10. M. A. Wall et al., Cell 83, 1047-58 (1995) • 11. A. Kumagai et al., Cell 57, 265-75 (1989). • 12. The gene encoding CFP was inserted into a Spe1 site after residue 90, in the loop between the αA and the αB helices, of the Gα2 cDNA. The SpeI site also added a threonine and serine residue at the N and C terminal loundaries of the insertion. This fusion was cloned into the CV5 vector. The gα2^− cells were transformed, and individual G418 resistant clones were selected. […] Equal amounts of plasmids carrying the Gα2-CFP and Gβ-YFP fusions were mixed, transformed into gα2 cells, and individual G418 resistant clones were selected.

cAR1 = target: T1, cAR1 (Dictyostelium discoideum, UniProt P13773); settings: cited from earlier work; for Kd: literature ref 16, read-out: reported binding affinity (average KD)
T1 sequence (P13773 1-392): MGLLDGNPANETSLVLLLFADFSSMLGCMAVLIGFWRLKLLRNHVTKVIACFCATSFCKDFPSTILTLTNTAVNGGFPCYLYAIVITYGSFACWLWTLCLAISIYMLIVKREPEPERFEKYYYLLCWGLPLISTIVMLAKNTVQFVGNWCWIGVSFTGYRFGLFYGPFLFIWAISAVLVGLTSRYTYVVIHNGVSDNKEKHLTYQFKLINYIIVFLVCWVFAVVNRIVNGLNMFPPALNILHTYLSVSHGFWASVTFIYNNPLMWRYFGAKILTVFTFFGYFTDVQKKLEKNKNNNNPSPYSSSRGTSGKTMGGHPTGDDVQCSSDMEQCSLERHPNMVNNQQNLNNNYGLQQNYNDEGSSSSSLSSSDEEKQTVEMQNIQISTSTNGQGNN

[2] = system: PH-domain recruitment to membranes; assay: PH domain (PHCRAC-GFP) binding to membranes in cell lysates; type: biochemical, D. discoideum
Experimental: FIGS. 4A to 4C. Continuous activation of the G-protein cycle. […] (FIG. 4B) Receptor regulation of PH domain translocation. […] After 2 minutes membranes were collected and binding of the PHCRAC-GFP was assessed by immunoblot analysis using antibodies to GFP (22). (FIG. 4C) Assessment of cAR1 phosphorylation.

[3] = target: T2, G-protein heterotrimer (Gα2-CFP:Gβ-YFP) (Dictyostelium discoideum, UniProt P16051, INS90[…]); assay: FRET signal in membranes prepared from α-CFP:β-YFP cells; type: biochemical, D. discoideum
T2 construct: expressed in transfected cells; host or cells: D. discoideum gα2-null cells (α-CFP:β-YFP cells), CV5 vector, G418-selected clones; living cells in A1 and A3, membranes prepared from them in A4

[4] = system: G-protein heterotrimer (Gα2-CFP:Gβ-YFP) in α-CFP:β-YFP cells; settings: saturating dose, within 6 seconds
Experimental: as §1

[5] = α2-CFP:β-YFP cells, caffeine treated, 10 mM dithiothreitol

For `Nc1ncnc2c1ncn2C1CC2OP(=O)(O)OCC2O1` (stereo not shown) [2′-dcAMP], the EC50 [1, 5] is listed as roughly 20 nM and the Kd (cAR1) is listed as roughly 1000 nM.
For `Nc1ncnc2c1ncn2[C@@H]1O[C@H](COP(=O)(O)O)[C@@H](O)[C@H]1O` [5′-AMP], the “effect on the FRET signal” value ([1]; 1 mM) is listed as “no effect on the FRET signal” and the “binding to cAR1” value (cAR1) is listed as “does not bind to cAR1”.
For `Nc1ncnc2c1nc(Br)n2[C@@H]1O[C@@H]2COP(=O)(O)O[C@H]2[C@H]1O` [8-Br-cAMP], the EC50 [1, 5] is given as roughly 2000 nM and the Kd (cAR1) is given as roughly 32000 nM.
In the case of `Nc1nc2c(ncn2[C@@H]2O[C@H](COP(=O)(O)OP(=O)(O)OP(O)(O)=S)[C@@H](O)[C@H]2O)c(=O)[nH]1` [GTPγS], the “binding of PH-domains to membranes” value ([2]; lysates from adapted cells (cAMP 15 minutes)) is reported as “this response was lost”, the “binding of PH-domains to membranes” value ([2]; lysates from naive cells) is reported as “stimulated the binding of PH-domains to membranes” and the “FRET signal of membranes” value ([3]; GTPγS alone (data not shown)) is reported as “not with GTPγS alone”. The “FRET signal of membranes” value ([3]; Mg++ plus GTPγS (data not shown)) was “disappeared”.
In the case of `Nc1ncnc2c1ncn2C1OC2COP(=O)(O)OC2C1O` (stereo not shown) [cAMP, cyclic adenosine 3′, 5′ phosphate], the “FRET signal remaining, % of the initial value” [1] is reported as roughly 20%, the “change in FRET after adjusting to 10 μM” value [1] is reported as “further decrease in FRET” and the “decrease of the FRET signal” value [1] is reported as “approximately 70%”. The duration of activation [1] was “Activation did not subside”, the “response as % of the maximum” value [1] was 90% and the “time for the FRET signal to return to its maximal level” value [1] was “within two minutes”. The “time to maximal response after stimulation” value [1] was no more than 10 s, the EC50 [1] was roughly 10 nM and the “decrease of the membrane FRET signal” value [4] was “about 15%”.
